Reference: US10077247B2, “Tricyclic spiro compound” (ONO PHARMACEUTICAL CO., LTD., priority 2015, dated 2018)

How the values were obtained:
[1] = target: rat EP4 receptor (Rattus norvegicus (Rat), UniProt P43114); assay: EP4 antagonistic activity measurement using prostanoid receptor subtype expressing cells (cAMP); type: cell-based; conditions: CHO cells expressing rat EP4 receptor; inhibition of cAMP production by PGE2 10 nM
Description: CHO cells expressing rat EP4 receptor subtypes were prepared according to the methods of Nishigaki et al. (FEBS Letters, Vol. 364, p. 339-341, 1995), and used for experiment. Cultured subconfluent cells were detached, and suspended in an assay medium (MEM containing 1 mmol/L IBMX, 1% HSA) in a concentration of 1×10^6 cells/mL. For reaction, PGE2 was added to the cell suspension (25 μL) in a final concentration of 10 nmol/L, either alone or as a 25-μL PGE2 solution containing the test compound. After 30 minutes of reaction at room temperature, the amount of cAMP in the cells was quantified according to the method in the descriptions of the cAMP assay kit (CISBIO).
The antagonistic effect (IC50 value) of the test compound was calculated as a value that represents an inhibition rate against a reaction with PGE2 alone at 10 nM, a concentration that produces a submaximal cAMP producing effect.

[2] = tested on: mouse colorectal cancer cell line CT26; assay: Anti-tumor effect in allograft model of mouse colorectal cancer cell line CT26; type: in vivo; conditions: 10 mg/kg orally, twice a day, Balb/C mouse, 21 days from transplant
Description: The anti-tumor effect of the present compound was evaluated in an allograft model of the mouse colorectal cancer cell line CT26. CT26 was cultured in a CO2 incubator, using an RPMI-1640 medium containing 10 vol % inactivated fetal bovine serum (FBS), 100 units/mL of penicillin, and 100 µg/mL of streptomycin. On the day of transplant, CT26 was harvested after removing the culture supernatant, and washing the cells with phosphate buffer (hereinafter, “PBS”). The harvested CT26 cells were suspended in Hank's buffer to obtain transplant cells. The transplant cells (3×10^5) were then subcutaneously transplanted to the right back of a female Balb/C mouse (Charles River Laboratories Japan Inc.) under anesthesia. The present compound was orally administered in a dose of 10 mg/kg, once on the day of transplant, and twice a day from the next day. For the control group, distilled water was administered for the same duration as in the present compound-administered group. The tumor volume (mm^3) was determined by calculating a relative tumor volume from the measured tumor lengths along the minor axis and major axis using a digital caliper, according to the following formulae 1 and 2. Tumor volume=[(minor axis)^2×major axis]/2 Relative tumor volume=medium value of tumor volumes of each group after 21 days from transplant/medium value of tumor volume of control group after 21 days from transplant

[3] = Pharmacokinetics test (hepatic microsome stability test); conditions: human hepatic microsome 1 mg/mL, 37° C., 60 min, 1 μmol/L

Sequence of rat EP4 receptor (P43114 whole entry): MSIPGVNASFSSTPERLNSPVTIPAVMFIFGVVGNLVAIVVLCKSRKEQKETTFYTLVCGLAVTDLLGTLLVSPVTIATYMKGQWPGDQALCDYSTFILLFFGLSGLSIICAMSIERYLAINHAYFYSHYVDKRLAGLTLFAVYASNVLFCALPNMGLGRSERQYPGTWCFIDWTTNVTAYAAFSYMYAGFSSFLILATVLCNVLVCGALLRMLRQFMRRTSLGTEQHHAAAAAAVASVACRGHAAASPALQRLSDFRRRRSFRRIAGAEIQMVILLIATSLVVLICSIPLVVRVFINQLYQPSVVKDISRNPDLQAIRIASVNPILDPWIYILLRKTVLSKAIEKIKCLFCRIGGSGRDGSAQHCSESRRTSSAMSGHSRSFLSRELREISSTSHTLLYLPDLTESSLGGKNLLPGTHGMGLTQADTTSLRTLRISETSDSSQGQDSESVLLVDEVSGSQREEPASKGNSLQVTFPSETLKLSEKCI

Row | SMILES | IC50 [1] [nM] | Remaining rate (%) [3] [%] | tumor growth inhibitory effect (relative tumor volume, FIG. 1) [2]
1 | CC(C)NC(=O)c1ccc2c(c1)[C@]1(CCO2)C[C@H]1C(=O)Nc1cc(C#N)ccc1CCCC(=O)O [Example 2-13, 4-[4-Cyano-2-({[(2′R,4S)-6-(isopropylcarbamoyl)-2,3-dihydrospiro[chromene-4,1′-cyclopropan]-2′-yl]carbonyl}amino)phenyl]butanoic acid] | 7.8 | 100 | tumor growth inhibitory effect
2 | CNC(=O)c1cc2c(cc1OC)OCC[C@]21C[C@H]1C(=O)Nc1cc(C#N)ccc1CCCC(=O)O [Example 33-1, 4-[4-Cyano-2-({[(2′R,4S)-7-methoxy-6-(methylcarbamoyl)-2,3-dihydrospiro[chromene-4,1′-cyclopropan]-2′-yl]carbonyl}amino)phenyl]butanoic acid] | 10 | 98 | 
3 | N#Cc1ccc(CCCC(=O)O)c(NC(=O)[C@@H]2C[C@]23COc2ccc(-c4cccnc4)cc23)c1 [Example 36, 4-[4-Cyano-2-({[(2′R,3S)-5-(3-pyridinyl)spiro[1-benzofuran-3,1′-cyclopropan]-2′-yl]carbony}amino)phenyl]butanoic acid] | 4.5 | 93 | 
4 | CNC(=O)c1ccc2c(c1)[C@]1(CO2)C[C@H]1C(=O)Nc1cc(C#N)ccc1CCCC(=O)O [Example 37-1, 4-[4-Cyano-2-({[(2′R,3S)-5-(methylcarbamoyl)spiro[1-benzofuran-3,1′-cyclopropan]-2′-yl]carbonyl}amino)phenyl]butanoic acid] | 7.2 | 77 | 
5 | COCCNC(=O)c1ccc2c(c1)[C@@]1(C[C@H]1C(=O)Nc1cc(C#N)ccc1CCCC(=O)O)CC2(C)C [Example 38-1, 4-[4-Cyano-2-({[(1S,2R)-6′-[(2-methoxyethyl)carbamoyl]-3′,3′-dimethyl-2′,3′-dihydrospiro[cyclopropane-1, 1′-inden]-2-yl]carbonyl}amino)phenyl]butanoic acid] | 5.4 | 69 | 
6 | CNC(=O)c1ccc2c(c1)[C@@]1(C[C@H]1C(=O)Nc1cc(C#N)ccc1CCCC(=O)O)CC2(C)C [Example 38-2, 4-[4-Cyano-2-({[(1S,2R)-3′,3′-dimethyl-6′-(methylcarbamoyl)-2′,3′-dihydrospiro[cyclopropane-1, 1′-inden]-2-yl]carbonyl}amino)phenyl]butanoic acid] | 4.3 | 89 | 
7 | CC1(C)C[C@]2(C[C@H]2C(=O)Nc2cc(C#N)ccc2CCCC(=O)O)c2cc(-c3cccnc3)ccc21 [Example 39, 4-[4-Cyano-2-({[(1S,2R)-3′,3′-dimethyl-6′-(3-pyridinyl)-2′,3′-dihydrospiro[cyclopropane-1,1′-inden]-2-yl]carbonyl}amino)phenyl]butanoic acid] | 5.7 | 78 | 

Second part, led by results:

Row | IC50 [1] [nM] | Remaining rate (%) [3] [%] | SMILES | tumor growth inhibitory effect (relative tumor volume, FIG. 1) [2]
8 | 5.3 | 97 | COCCNC(=O)c1ccc2c(c1)[C@]1(CCO2)C[C@H]1C(=O)Nc1cc(C#N)ccc1CCCC(=O)O [Example 2-2, 4-{4-Cyano-2-[({(2′R,4S)-6-[(2-methoxyethyl)carbamoyl]-2,3-dihydrospiro[chromene-4,1′-cyclopropan]-2′-yl}carbonyl)amino]phenyl}butanoic acid] | tumor growth inhibitory effect
9 | 6.9 | 100 | COCCNC(=O)c1ccc2c(c1)OCC[C@]21C[C@H]1C(=O)Nc1cc(C#N)ccc1CCCC(=O)O [Example 28-2, 4-{4-Cyano-2-[({(2′R,4S)-7-[(2-methoxyethyl)carbamoyl]-2,3-dihydrospiro[chromene-4,1′-cyclopropan]-2′-yl}carbonyl)amino]phenyl}butanoic acid] | 
10 | 8.4 | 100 | COCCNC(=O)c1cc2c(cc1OC)OCC[C@]21C[C@H]1C(=O)Nc1cc(C#N)ccc1CCCC(=O)O [Example 33-2, 4-{4-Cyano-2-[({(2′R,4S)-7-methoxy-6-[(2-methoxyethyl)carbamoyl]-2,3-dihydrospiro[chromene-4,1′-cyclopropan]-2′-yl}carbonyl)amino]phenyl}butanoic acid] | 
11 | 6.2 | 87 | COCCNC(=O)c1ccc2c(c1)[C@]1(CO2)C[C@H]1C(=O)Nc1cc(C#N)ccc1CCCC(=O)O [Example 37-2, 4-{4-Cyano-2-[({(2′R,3S)-5-[(2-methoxyethyl)carbamoyl]spiro[1-benzofuran-3,1′-cyclopropan]-2′-yl}carbonyl)amino]phenyl}butanoic acid] | 
